Experiments:
B. trispora [1] = assay: Effect on beta-carotene production with B. trispora in shake flask fermentation (HPLC); assay type: cell-based, Blakeslea trispora; conditions: for BC: average of two measurements; for Increase BC: compared to control with no curcumin/isoniazid
Protocol: (§1) Shake flask seed medium MIBLT-1. 23.5 g/l corn meal, 23 g/l soybean meal, 10 g/l glucose, 0.5 g/l KH2PO4 are mixed, the medium pH is adjusted to 6.3, homogenized with an Ultra-Turrax® blender (Ika) for 8 minutes at 13500 rpm, and heated at 70° C. for 45 minutes prior to autoclaving.
(§2) Shake flask production medium MF-BLT-22. 17.5 g/l corn meal, 40 g/l soya flour, 10 g/l soy lecithin, 0.5 g/l KH2PO4, 109 g/l soy oil, optionally 0.28 g/l isoniazid, optionally curcumin (1.0, 0.3, 0.1, 0.03 or 0.01% w/v), are mixed, the medium pH is adjusted to 6.3, is homogenized with an Ultra-Turrax® blender (Ika) for 8 minutes at 13500 rpm, and heated at 70° C. for 45 minutes prior to autoclaving.
(§3) Shake Flask Process. An Erlenmeyer flask (250 or 300 mL volume) containing 30 ml of seed medium (MIBLT-1) is inoculated with spores of B. trispora (−) strain to a concentration of 4.5×10^3 spores/ml. A second Erlenmeyer flask containing 30 ml of MIBLT-1 is inoculated with spores of B. trispora (+) strain to a concentration of 1.5×10^3 spores/ml. The flasks are incubated (220 rpm, 5 cm displacement, 27° C., protected from light) for 48 hr. Three ml of (+) strain culture are added to 30 ml of (−) strain culture, and the mated strains mixture is incubated (220 rpm, 5 cm throw, 27° C., protected from light) for 45 minutes. Erlenmeyer flasks (250 or 300 mL volume) containing 20 ml of production medium (MF-BLT-22) are inoculated with 2 ml of the mated strains mixture. Flasks are incubated (250 rpm, 5 cm displacement, 25° C., protected from light). At 48 hours after inoculation of the 20 mL production cultures, 40 μL of a 50% v/v sterile beta-ionone solution in absolute ethanol is added to each flask. Cultures are returned to the incubator for a total of 7 days post inoculation.
(§4) Sample preparation for HPLC-analysis. Each flask culture is transferred to a 50 mL conical tube and homogenized with an Ultra-Turrax® blender (Ika) for 2 minutes at 24000 rpm. Weigh out one gram of sample into a 100 ml volumetric flask. Eighty milliliters of Solution A are added to the flask and the flask is sonicated for 5 min. The volume is brought to 100 ml with solution A, and the solution is stirred for 60 minutes and allowed to settle for another hour.
(§5) HPLC-analysis. Samples from the above extract (10 μl) are injected as is on a calibrated HPLC using a Suplex-PKB-100 column (Supelco), with a flow rate of 0.6 ml/min, and column temperature of 30° C. The mobile phase contains (per L) 455 ml acetonitrile, 500 ml methanol, 0.2 ml N-ethyldiisopropylamine, 25 ml aqueous solution of 0.2% ammonium acetate, and 50 mg BHT (dissolved in 20 ml of 2-propanol). Compounds are identified and quantified by UV at 448 nm.
Concentration of beta-carotene was measured as described in Example 1, with comparison of different concentrations of curcumin.

B. trispora [2] = assay: Effect on beta-carotene purity profile with B. trispora (percentage of total carotenoids, HPLC); assay type: cell-based, Blakeslea trispora; conditions: for 7,8-DH [%] of total carotenoids / BC [%] of total carotenoids: average of two measurements
Protocol: as §1, §2, §3, §4, §5
Fermentations and analysis were performed as described in Ex. 2, including addition of various concentrations of curcumin.

[3] = curcumin 0.3% w/v, listed as Curcumin

COc1cc(/C=C/C(=O)CC(=O)/C=C/c2ccc(O)c(OC)c2)ccc1O [curcumin]
BC (B. trispora [1]; curcumin 0.01% w/v in production medium, no isoniazid): 1.74 g/L | Increase BC (B. trispora [1]; curcumin 0.01% w/v): 12% | BC (B. trispora [1]; curcumin 0.03% w/v in production medium, no isoniazid): 2.45 g/L | Increase BC (B. trispora [1]; curcumin 0.03% w/v): 58% | BC (B. trispora [1]; curcumin 0.1% w/v in production medium, no isoniazid): 3.48 g/L | Increase BC (B. trispora [1]; curcumin 0.1% w/v): 125% | BC (B. trispora [1]; curcumin 0.3% w/v in production medium, no isoniazid): 4.99 g/L | Increase BC (B. trispora [1]; curcumin 0.3% w/v): more than 220% | Increase BC (B. trispora [1]; [3]): 222% | BC (B. trispora [1]; curcumin 1.0% w/v in production medium, no isoniazid): 4.55 g/L | Increase BC (B. trispora [1]; curcumin 1.0% w/v): 194% | increase of percentage of beta-carotene based on total carotenoids (B. trispora [2]; 0.3% curcumin, compared to fermentations without curcumin): about 10% | percentage of 7,8-dihydro-beta-carotene based on total carotenoids (B. trispora [2]; about 0.3 to 1.0% curcumin): about 3% | reduction of 7,8-dihydro-beta-carotene based on total carotenoids (B. trispora [2]; about 1.0% (w/v) curcumin, compared to no curcumin): about 68% | reduction of 7,8-dihydro-beta-carotene based on total carotenoids (B. trispora [2]; addition of curcumin (amount not specified), compared to fermentation without curcumin): at least 28% | 7,8-DH [%] of total carotenoids (B. trispora [2]; curcumin 0.01% w/v): 9.98% | BC [%] of total carotenoids (B. trispora [2]; curcumin 0.01% w/v): 81.19% | 7,8-DH [%] of total carotenoids (B. trispora [2]; curcumin 0.03% w/v): 6.99% | BC [%] of total carotenoids (B. trispora [2]; curcumin 0.03% w/v): 85.59% | 7,8-DH [%] of total carotenoids (B. trispora [2]; curcumin 0.1% w/v): 5.79% | BC [%] of total carotenoids (B. trispora [2]; curcumin 0.1% w/v): 86.75% | 7,8-DH [%] of total carotenoids (B. trispora [2]; curcumin 0.3% w/v): 3.35% | BC [%] of total carotenoids (B. trispora [2]; curcumin 0.3% w/v): about 91% | BC [%] of total carotenoids (B. trispora [2]; [3]): 91.44% | 7,8-DH [%] of total carotenoids (B. trispora [2]; curcumin 1.0% w/v): 3.12% | BC [%] of total carotenoids (B. trispora [2]; curcumin 1.0% w/v): 92.17%

NNC(=O)c1ccncc1 [isoniazid, reference compound]
BC (B. trispora [1]; isoniazid 0.28 g/l in production medium, no curcumin): 4.17 g/L | increase in the percentage of beta-carotene based on total carotenoids (B. trispora [2]; addition of 0.28 g/l isoniazid, compared to no isoniazid): less than 10% | percentage of 7,8-dihydro-beta-carotene based on total carotenoids (B. trispora [2]; addition of isoniazid (0.28 g/l)): 28.1%

Source: patent publication US12270065B2, “Methods for improving titer and purity of beta carotene fermentation in Blakeslea trispora (beta-carotene fermentation method)” (DSM IP Assets B.V., priority 2019, dated 2025)
